Data from patent US20150037269A1, “TOPICAL COMPOSITIONS FOR TREATMENT OF EXCESSIVE SWEATING AND METHODS OF USE THEREOF” (GlaxoSmithKline Intellectual Property Development Limited, priority 2013, published 2015).
Blank lines part the entries; values can stand above or below the compound they belong to.

Assays:
[1] = Irritation potential of topical solution; conditions: solution comprising 2.2% w/w
[2] = MALDI imaging of distribution in skin layers; type: in vitro ADME, human; conditions: twenty-four hours after single finite topical dose
Excerpt: Matrix-assisted laser desorption/ionization (MALDI) has emerged as a powerful and diverse technology for analyzing the spatial distribution of endogenous and exogenous compounds directly from a tissue section. [See Seeley E H, Caprioli R M. MALDI imaging mass spectrometry of human tissue: method challenges and clinical perspectives. Trends Biotechnol. 29(3), 136-143 (2011); and Svatos A. Mass spectrometric imaging of small molecules. Trends Biotechnol. 28(8), 425-434 (2010)]. […] Anal Bioanal Chem. (2013); 405(4):1159-70]. MALDI imaging in human skin tissue sections: focus on various matrices and enzymes.

[3] = Clinical study: single radiolabelled topical dose to axilla or palm of healthy male subjects; type: in vivo, human; conditions: for Cmax: male, human, plasma, topical, 3.05 mg
Description: Up to four cohorts were to be enrolled (Cohort A: unoccluded axilla; Cohort B: occluded axilla; Cohort C: unoccluded palm; Cohort D: occluded palm). Six subjects were to be dosed in each cohort and complete the study procedures.
On the day of dosing, subjects will receive the study drug applied to the axilla or palm. Each subject will only receive a single dose of study drug which will be applied to the test site and remain on the application site for 8 hours. Serial blood samples will be collected throughout treatment. An interim analysis using simulations will be conducted after each cohort to determine the likelihood of exceeding the safety cover for Cmax or AUC and the likelihood of obtaining quantifiable concentrations sufficient to determine the half-life in the subsequent cohorts.

[4] = Population pharmacokinetic model (IV plus dermal occluded axilla data); type: in vivo, human
Excerpt: Of the drug that was available systemically, 9.70% (66.7%) was absorbed through a zero order process.

[5] = cited from earlier work
[6] = PopPK, IV and dermal occluded axilla

Compound: OC(c1ccccc1)(c1ccccc1)C12CC[N+](CCOCc3ccccc3)(CC1)CC2 [umeclidinium bromide]
irritation potential [1]: low irritation potential

Cmax ([3]; occluded axilla (Cohort B), CV 122%): 7.92 pg/mL | Cmax ([3]; unoccluded axilla (Cohort A), CV 144%): 2.33 pg/mL | samples quantifiable up to ([3]; occluded axilla (Cohort B), post dose): 16 to 72 h | mean percent dose recovered from the skin surface ([3]; occluded axilla (Cohort B), range 69.2%-81.7%): 75.4% | median time to maximum concentration ([3]; occluded axilla (Cohort B), range 2 h-24 h): 13 h | plasma concentrations ([3]; occluded palm (Cohort D)): no quantifiable plasma concentrations | mean percent dose recovered from the skin surface ([3]; occluded palm (Cohort D), range 45.6%-59.9%): 52.5% | mean percent dose recovered from the skin surface ([3]; unoccluded axilla (Cohort A), end of 8 hour application, range 77.7-84.1%): 80.6% | quantifiable plasma concentrations up to ([3]; unoccluded axilla (Cohort A), one subject, post-dose): up to 72 hours | median time to maximum plasma concentration ([3]; unoccluded axilla (Cohort A), range 12 h-30 h): 13 h | CL2 Intercompartmental Clearance, Mean (RSE %) [4, 6]: 39376 (26.0%) mL/h | CL Elimination clearance, Mean (RSE %) [4, 6]: 45241 (23.6%) mL/h | F1 Fraction of the bioavailable drug absorbed through a zero order process, Mean (RSE %) [4, 6]: 0.097 (66.7%) | Ka First order absorption rate constant, Mean (RSE %) [4, 6]: 0.094 (54.1%) | Tlag Lag time for the first order absorption process, Mean (RSE %) [4, 6]: 8.61 (15.3%) hr | V1 Volume of central compartment, Mean (RSE %) [4, 6]: 7726 (17.6%) mL | V2 Volume of peripheral compartment, Mean (RSE %) [4, 6]: 261058 (57.3%) mL | F Absolute plasma bioavailability following administration to occluded axilla, Mean (RSE %) ([4]; PopPK, fraction): 0.0019 (55.3%) | bioavailability ([4]; human, plasma, topical, 3.05 mg, occluded axilla, RSE 55.3%, read-out: estimated absolute plasma bioavailability): 0.19% | share of systemically available drug absorbed through a zero order process ([4]; occluded axilla, RSE 66.7%): 9.70%
Compound: OC(c1ccccc1)(c1ccccc1)C12CC[N+](CCOCc3ccccc3)(CC1)CC2 [umeclidinium, 4-[hydroxy(diphenyl)methyl]-1-{2-[(phenylmethyl)oxy]ethyl}-1-azoniabicyclo[2.2.2]octane]
qualitative distribution in skin layers [2]: penetrated to the deeper sections of the dermis and accumulated in the area where the sweat glands are present | tolerability in thorough QT study ([5]; 0.5 mg inhaled once daily for 10 days): well tolerated | tolerability in clinical development program ([5]; oral, intravenous and oral inhalation routes): well tolerated
